Measured values published in US5175100A, “Stereospecific resolution by hydrolysis of esters of 2-arylpropionic acids by liver enzymes” (Rhone-Poulenc, Inc., priority 1991, dated 1992).

Columns and labels:
Assay type in all cases: biochemical
[1] = system: Liver acetone powder from Dog; assay: Hydrolysis of ketoprofen esters by dog liver acetone powder
Protocol: (§1) A solution of 50 mg of ketoprofen methyl ester in 0.2 ml of ethanol was added to 10 mg of each of liver acetone powder from various animal sources (described in Table 1) in 5 ml of 0.1M potassium phosphate buffer (pH 7.0) After shaking at room temperature for 24 hours, the reaction mixtures were acidified to pH 2.0 with 6(N) HCl and extracted with 10 ml of ethyl acetate. A portion of the ethyl acetate extract was analyzed by HPLC on a Partisil 5 ODS-3 RAC column (9.4 mm×100 mm, Whatman) using a mixture of methanol and 10 mM ammonium dihydrogen phospate (9:1) and monitored by UV at 254 nm to determine the percentages of acid produced in the reaction.
(§2) To determine the percentage of R- and S-acid, a portion of the ethyl acetate extract was converted to the amide derivative of the acid produced with R(+)-1-phenylethylamine as follows. The ethyl acetate extract (5 ml) was dried over sodium sulfate, filtered and cooled to 0° C. To the cold solution was added 0.2 ml of N-methylmorpholine followed by 0.2 ml of isobutyl chloroformate. After gentle shaking at 0° C. for 10 minutes, 0.2 ml of R(+)-1-phenylethylamine was added and the shaking was continued at 0° C. for 5 minutes and at room temperature for another 5 minutes. The reaction mixture was washed successively with water (5 ml), 1(N) HCl (5 ml), and water (5 ml) to provide the amide derivative in ethyl acetate solution. The ethyl acetate solution of the amide derivative was then analyzed by HPLC on the same column and same solvent mixture but with a different composition, i.e., a ratio of 6:4, and monitored by UV to determine the percentages of R- acid and S-acids produced by hydrolysis. The enantiomeric excess (EE) is defined as the difference in percent between the percent R- acid and the percent S-acid, the higher enantiomer being reported in the parenthesis in Table I.
(§3) Several esters of ketoprofen (0.2 millimole) with various alkyl groups of varying chain length were hydrolyzed using liver acetone powders from bovine, calf and dog by the procedure described in Example 1. The reaction mixtures were analyzed by the same procedures as described in Example 1 and the results obtained are summarized in Table II.

[2] = system: Liver acetone powder from Calf; assay: Hydrolysis of ketoprofen esters by calf liver acetone powder
Protocol: as §1, §2, §3

[3] = system: Liver acetone powder from Pigeon; assay: Hydrolysis of ketoprofen methyl ester by pigeon liver acetone powder
Protocol: as §1, §2

[4] = system: Liver acetone powder from Horse; assay: Hydrolysis of ketoprofen methyl ester by horse liver acetone powder
Protocol: as §1, §2

[5] = system: Liver acetone powder from Rabbit; assay: Hydrolysis of ketoprofen methyl ester by rabbit liver acetone powder
Protocol: as §1, §2

[6] = system: Liver acetone powder from Sheep; assay: Hydrolysis of ketoprofen methyl ester by sheep liver acetone powder
Protocol: as §1, §2

[7] = system: Liver acetone powder from Chicken; assay: Hydrolysis of ketoprofen methyl ester by chicken liver acetone powder
Protocol: as §1, §2

[8] = system: Liver acetone powder from Seal; assay: Hydrolysis of ketoprofen methyl ester by seal liver acetone powder
Protocol: as §1, §2

[9] = system: Liver acetone powder from Mouse; assay: Hydrolysis of ketoprofen methyl ester by mouse liver acetone powder
Protocol: as §1, §2

[10] = system: Liver acetone powder from Lungfish; assay: Hydrolysis of ketoprofen methyl ester by lungfish liver acetone powder; conditions: Lungfish powder 10 mg, 50 mg ester, pH 7.0, room temperature, 24 hours
Protocol: as §1

[11] = system: Liver acetone powder from Eel*; assay: Hydrolysis of ketoprofen methyl ester by eel (Anguilla anguilla) liver acetone powder; conditions: Eel (Anguilla anguilla) powder 10 mg, 50 mg ester, pH 7.0, room temperature, 24 hours
Protocol: as §1

[12] = system: Liver acetone powder from Eel**; assay: Hydrolysis of ketoprofen methyl ester by eel (Electrophorous electricus) liver acetone powder; conditions: Eel (Electrophorous electricus) powder 10 mg, 50 mg ester, pH 7.0, room temperature, 24 hours
Protocol: as §1

[13] = system: Liver acetone powder from Porcine; assay: Hydrolysis of ketoprofen methyl ester by porcine liver acetone powder; conditions: Porcine powder 10 mg, 50 mg ester, pH 7.0, room temperature, 24 hours
Protocol: as §1

[14] = system: Liver acetone powder from Guinea Pig; assay: Hydrolysis of ketoprofen methyl ester by guinea pig liver acetone powder; conditions: Guinea Pig powder 10 mg, 50 mg ester, pH 7.0, room temperature, 24 hours
Protocol: as §1

[15] = system: Liver acetone powder from Trout; assay: Hydrolysis of ketoprofen methyl ester by trout liver acetone powder; conditions: Trout powder 10 mg, 50 mg ester, pH 7.0, room temperature, 24 hours
Protocol: as §1

[16] = system: Liver acetone powder from Lemon Shark; assay: Hydrolysis of ketoprofen methyl ester by lemon shark liver acetone powder; conditions: Lemon Shark powder 10 mg, 50 mg ester, pH 7.0, room temperature, 24 hours
Protocol: as §1

[17] = system: Liver acetone powder from Salmon; assay: Hydrolysis of ketoprofen methyl ester by salmon liver acetone powder; conditions: Salmon powder 10 mg, 50 mg ester, pH 7.0, room temperature, 24 hours
Protocol: as §1

[18] = system: Liver acetone powder from Turtle; assay: Hydrolysis of ketoprofen methyl ester by turtle liver acetone powder; conditions: Turtle powder 10 mg, 50 mg ester, pH 7.0, room temperature, 24 hours
Protocol: as §1

[19] = Dog powder 10 mg, 50 mg ester, pH 7.0, room temperature, 24 hours
[20] = Dog powder, 0.2 millimole ester, procedure of Example 1
[21] = Calf powder 10 mg, 50 mg ester, pH 7.0, room temperature, 24 hours
[22] = Calf powder, 0.2 millimole ester, procedure of Example 1
[23] = Pigeon powder 10 mg, 50 mg ester, pH 7.0, room temperature, 24 hours
[24] = Horse powder 10 mg, 50 mg ester, pH 7.0, room temperature, 24 hours
[25] = Rabbit powder 10 mg, 50 mg ester, pH 7.0, room temperature, 24 hours
[26] = Sheep powder 10 mg, 50 mg ester, pH 7.0, room temperature, 24 hours
[27] = Chicken powder 10 mg, 50 mg ester, pH 7.0, room temperature, 24 hours
[28] = Seal powder 10 mg, 50 mg ester, pH 7.0, room temperature, 24 hours
[29] = Mouse powder 10 mg, 50 mg ester, pH 7.0, room temperature, 24 hours

COC(=O)C(C)c1cccc(C(=O)c2ccccc2)c1 (centres unmarked) [Methyl Ester of Ketoprofen, ketoprofen methyl ester]
Percentage of Acid R-acid [1, 19]: 87.1%
Percentage of Acid S-acid [1, 19]: 12.9%
Percentage of acid [1, 19]: 8.0%
Acid Produced (%) [1, 20]: 6.2%
EE(%) of R-Acid [1, 20]: 76.6%
Percent of Acid R-Acid [1, 20]: 88.3%
Percent of Acid S-Acid [1, 20]: 11.7%
Percentage EE of acid (R or S) ([1]; Dog powder, Table 1, higher enantiomer (R)): 74.2%
Percentage of Acid R-acid [2, 21]: 71.6%
Percentage of Acid S-acid [2, 21]: 28.4%
Percentage of acid [2, 21]: 5.7%
Acid Produced (%) [2, 22]: 7.3%
EE(%) of R-Acid [2, 22]: 45.6%
Percent of Acid R-Acid [2, 22]: 72.8%
Percent of Acid S-Acid [2, 22]: 27.2%
Percentage EE of acid (R or S) ([2]; Calf powder, Table 1, higher enantiomer (R)): 43.2%
Percentage of Acid R-acid [3, 23]: 66.7%
Percentage of Acid S-acid [3, 23]: 33.3%
Percentage of acid [3, 23]: 18.0%
Percentage EE of acid (R or S) ([3]; Pigeon powder, Table 1, higher enantiomer (R)): 33.4%
Percentage of Acid R-acid [4, 24]: 62.7%
Percentage of Acid S-acid [4, 24]: 37.3%
Percentage of acid [4, 24]: 24.1%
Percentage EE of acid (R or S) ([4]; Horse powder, Table 1, higher enantiomer (R)): 25.4%
Percentage of Acid R-acid [5, 25]: 46.1%
Percentage of Acid S-acid [5, 25]: 53.9%
Percentage of acid [5, 25]: 54.9%
Percentage EE of acid (R or S) ([5]; Rabbit powder, Table 1, higher enantiomer (S)): 7.8%
Percentage of Acid R-acid [6, 26]: 46.5%
Percentage of Acid S-acid [6, 26]: 53.5%
Percentage of acid [6, 26]: 18.1%
Percentage EE of acid (R or S) ([6]; Sheep powder, Table 1, higher enantiomer (S)): 7.0%
Percentage of Acid R-acid [7, 27]: 52.7%
Percentage of Acid S-acid [7, 27]: 47.3%
Percentage of acid [7, 27]: 8.1%
Percentage EE of acid (R or S) ([7]; Chicken powder, Table 1, higher enantiomer (R)): 5.4%
Percentage of Acid R-acid [8, 28]: 48.9%
Percentage of Acid S-acid [8, 28]: 51.1%
Percentage of acid [8, 28]: 14.3%
Percentage EE of acid (R or S) ([8]; Seal powder, Table 1, higher enantiomer (S)): 2.2%
Percentage of Acid R-acid [9, 29]: 49.0%
Percentage of Acid S-acid [9, 29]: 51.0%
Percentage of acid [9, 29]: 9.4%
Percentage EE of acid (R or S) ([9]; Mouse powder, Table 1, higher enantiomer (R)): 2.0%
Percentage of acid [10]: 3.2%
Percentage of acid [11]: 3.0%
Percentage of acid [12]: 1.1%
Percentage of acid [13]: 0.9%
Percentage of acid [14]: 0.8%
Percentage of acid [15]: 0.7%
Percentage of acid [16]: 0.6%
Percentage of acid [17]: 0.6%
Percentage of acid [18]: 0.6%
